One molecule from patent US20210161999A1, “COMPOSITIONS AND METHODS RELATED TO OVERCOMING INNATE IMMUNE BARRIERS TO CANCER IMMUNOTHERAPY” (Health Research, Inc., priority 2018, published 2021) can be followed below.

“Also recorded” adds a separate entry of the source.

One data set concerns PMN. The experiment in a line: PMN viability (PI neg, Annexin-V neg) after exposure to treated ascites. The conditions noted are these: 24 h exposure to Cp40-treated ascites.
Test in data set [1]: as above
Conditions: human, PMN (neutrophils) exposed to peptide-treated ascites.
Procedure: Where indicated, cells were pelleted for immunophenotyping and supernatants were saved for ELISA at time points throughout coculture. Viability was assessed by staining with Annexin V and/or PI (Dead Cell Apoptosis Kit, V13241, Thermo Fisher Scientific), following the manufacturer's protocols. For surface phenotyping and intracellular staining, cells were stained in buffer (DPBS, 1% BSA, 2 mM EDTA) and Cytofix/Cytoperm buffer kit (BD Biosciences), respectively, following the manufacturer's protocols. Data were analyzed using FCS Express 6.

For the next data set, the system named is TALs. Put plainly: Coculture of TALs with autologous ascites and healthy donor PMN; anti-CD3/CD28-stimulated proliferation. It counts as cell-based, human. The conditions noted are these: Cp40-ASC; TALs from n=3 patients, PMN from healthy donors. An excerpt: FIG. 15. Inhibition of complement C3 activation abrogates the PMN suppressor phenotype induced by malignant effusions. […] The abrogation effect of Cp40 was highly robust, and was observed consistently in at least 10 separate experiments and 15 different ascites samples. […] C) Cryopreserved or fresh TALs (from n=3 patients) were cocultured with autologous ASC and/or PMN from healthy donors. […] Statistics are by ANOVA as compared to +CD3/CD28+ ASC+PMN (*, p<0.05; **, p<0.01; ***, p<0.001).
Inhibition of C3 abrogates neutrophil suppressor phenotype on EOC TALs In patients with metastatic EOC, tumor antigen-specific CD8^+ T cells have impaired effector function and increased co-expression of PD-1 and LAG-3 compared to circulating lymphocytes, and effector function was enhanced with blockade of PD-1 and LAG-3. We confirmed high expression of PD-1 and LAG-3 on TALs from the ascites of patients with newly diagnosed EOC (not shown). We next cocultured cryopreserved or fresh TALs from 3 patients with autologous ascites and/or neutrophils from healthy donors.

For data set [2], the system named is iC3b/C3b deposition on PMN. Put plainly: Deposition of iC3b/C3b on PMN after 1.5 h coculture (clone 3E7/C3b). It counts as cell-based, human. The conditions noted are these: PMN and T cells cocultured in treated ASC for 1.5 h (n=3 ASC). Here is the method:
FIG. 16. Complement activation in ASC results in C3b/iC3b deposition on PMN and mediates the PMN suppressor phenotype via the AP and classical pathways. A) Activation of complement in ASC principally occurs via the AP and classical pathways, though inter-patient variability was observed. ASC were assessed for complement activity by WIESLAB ELISA kits that detect formation of C5b-9. Percent (%) activity is in relation to the provided positive control (n=38 ASC, **, p=0.0015; ****, p<0.0001). […] C) PMN and T cells were cocultured in media, ASC, Cp40-ASC, or SCR-ASC for 1.5 h. Deposition of iC3b/C3b (clone 3E7/C3b recognizes both C3b and iC3b) on PMN was increased with ASC versus media, while iC3b/C3b deposition on T cells was unaffected by ASC (not shown). iC3b/C3b binding to PMN was decreased by Cp40-ASC, and unaffected by SCR-ASC (n=3 ASC).

For data set [3], the system named is PMN suppressor phenotype induced by malignant effusions. Put plainly: Coculture of PMN and stimulated T cells with malignant effusions (pleural fluid, ascites) of various metastatic cancers; T cell proliferation. It counts as cell-based, human. Conditions: Cp40-treated malignant pleural fluid/ascites from various metastatic cancers (n=7). An excerpt: We analyzed whether the PMN suppressor phenotype induced by EOC ascites would also occur following PMN exposure to other malignant effusions. We observed a similar PMN suppressor phenotype when PMN and anti-CD3/CD28-stimulated T cells were cocultured with malignant pleural and ascites supernatants from patients with a number of metastatic cancers (18/20 samples induced a PMN suppressor or intermediate suppressor phenotype). Using samples that met the suppressor definition (Table 3), the PMN suppressor phenotype induced by malignant pleural and ascites was also abrogated by Cp40-treatment (FIG. 3K).
Patients and Specimens. Participants included healthy donors, control female patients with a benign adnexal mass undergoing resection surgery, and cancer patients with malignant effusions. Healthy donors (n=4) were Caucasian, aged 26-51, and equally divided between sexes. […]
Freshly isolated T cells (1e5) were stimulated with anti-CD3/CD28 Dynabeads (2.5 μl; Thermo Fisher Scientific) and cocultured with autologous PMN (1:1) and ascites supernatants (50% final well volume) in an incubator at 37° C., 5% CO2. […] Cells were harvested onto a Filtermat and counted on a Beta counter. Results are expressed as net cpm [calculated by subtracting the average cpm of unstimulated T cells from the average cpm of stimulated T cells]. […]

By viability is commonly meant the share of living cells, or the viability signal relative to a control. High values mean less harm to the cells, low ones more harm to the cells. With `CC[C@H](C)[C@H](NC(=O)[C@H](N)Cc1ccc(O)cc1)C(=O)N[C@H]1CSSC[C@@H](C(=O)N(C)[C@H](C(N)=O)[C@@H](C)CC)NC(=O)[C@H](CCCNC(=N)N)NC(=O)[C@H](Cc2c[nH]cn2)NC(=O)[C@H](C)NC(=O)CN(C)C(=O)[C@H](Cc2c[nH]c3ccccc23)NC(=O)[C@H](CC(=O)O)NC(=O)[C@H](CCC(N)=O)NC(=O)[C@H](Cc2cn(C)c3ccccc23)NC(=O)[C@H](C(C)C)NC1=O` [Cp40], in the data set with PMN, the “neutrophil viability versus untreated or scramble peptide-treated ascites” value was “similar”. This molecule returned a viability at 24 h, 20 µM in data set [1] of 68 ± 8%. In addition, the “effect on suppression of stimulated TAL proliferation” value with TALs is reported as “fully abrogated”. The “iC3b/C3b binding to PMN” value in data set [2] is listed as “reduced; also recorded: decreased”. For the same molecule, the “effect on PMN suppressor phenotype induced by malignant effusions” value in data set [3] is recorded as “abrogated by Cp40-treatment in all of the tested samples”.
